Measured values as given in US6436902B1, “Therapeutic preparations for inhalation” (AstraZeneca AB, priority 1994, dated 2002).

Legend:
[1] = rats, intratracheal (IT) administration, cited from earlier work; for Shape of serum profile: 90 minutes experiment
[2] = Pharmacokinetic study: plasma concentration of PTH in dogs after inhalation of dry powder aerosol (RIA); type: in vivo, Beagle dogs; conditions: for Shape of serum/plasma profile after inhalation: dry powder aerosol inhaled via endotracheal tube; for Plasma concentration of PTH: PTH 1-84, inhaled dose 14 μg/kg
Experimental: The powder formulations were compressed in dust containers and generated continuously as dry powder aerosols by a Wright Dust Feed (WDF). The aerosols were generated by scraping off the formulations from the tablets in the dust containers. The mass flow through the WDF was 8.01/min.
The inhaled dose (ID) was determined by measuring the inspiratory tidal volume (ITV) and the PTH concentration during inhalation.
Beagle dogs (n=5, at each formulation) were starved for 16 hours before inhalation and the experiments were performed in the mornings.
Venous blood samples for determination of PTH concentration were taken from the jugular vein into heparinized vacutainer tubes (2 ml). The samples were collected before dosing and at 10, 15, 20, 30, 40, 60, 90, 120, 240 and 360 minutes after start (t=0) of inhalation. The whole blood samples were centrifuged immediately, alternatively kept in ice water for maximum 20 minutes before centrifugation, and the plasma (1 ml) was sampled for PTH analysis. PTH in plasma was analyzed using radioimmunoassay (RIA) kits.

[3] = test system: ovariectomized osteopenic rats; test: Bone effect: mineral density of the distal femur in ovariectomized osteopenic rats; type: in vivo; conditions: inhalation, 4 weeks of administration starting 6 weeks post ovariectomy
Experimental: The bone effect is measured in ovariectomized osteopenic rats as mineral density as weight/volume of the distal femur after 4 weeks of administration; starting 6 weeks post ovariectomy.

What does the source list for `CC[C@H](C)[C@H](NC(=O)[C@H](CCC(=O)O)NC(=O)[C@H](CO)NC(=O)[C@@H](NC(=O)[C@@H](N)CO)C(C)C)C(=O)N[C@@H](CCC(N)=O)C(=O)N[C@@H](CC(C)C)C(=O)N[C@@H](CCSC)C(=O)N[C@@H](Cc1cnc[nH]1)C(=O)N[C@@H](CC(N)=O)C(=O)N[C@@H](CC(C)C)C(=O)NCC(=O)N[C@@H](CCCCN)C(=O)N[C@@H](Cc1cnc[nH]1)C(=O)N[C@@H](CC(C)C)C(=O)N[C@@H](CC(N)=O)C(=O)N[C@@H](CO)C(=O)N[C@@H](CCSC)C(=O)N[C@@H](CCC(=O)O)C(=O)N[C@@H](CCCN=C(N)N)C(=O)N[C@H](C(=O)N[C@@H](CCC(=O)O)C(=O)N[C@@H](Cc1c[nH]c2ccccc12)C(=O)N[C@@H](CC(C)C)C(=O)N[C@@H](CCCN=C(N)N)C(=O)N[C@@H](CCCCN)C(=O)N[C@@H](CCCCN)C(=O)N[C@@H](CC(C)C)C(=O)N[C@@H](CCC(N)=O)C(=O)N[C@@H](CC(=O)O)C(=O)N[C@H](C(=O)N[C@@H](Cc1cnc[nH]1)C(=O)N[C@@H](CC(N)=O)C(=O)N[C@@H](Cc1ccccc1)C(=O)O)C(C)C)C(C)C` [PTH 1-34]?
Shape of serum profile [1]: activity diminishing rapidly thereafter; Time of serum peak [1]: 15 min; level at time molar at 10 min ([2]; beagle, dog, plasma, inhaled or intranasal, 4 ug/kg, PTH 1-34, inhaled dose 4.0 μg/kg, 10 min after start of inhalation): 0.0304 nM; level at time molar at 0.25 h ([2]; beagle, dog, plasma, inhaled or intranasal, 4 ug/kg, PTH 1-34, inhaled dose 4.0 μg/kg, 15 min after start of inhalation): 0.0474 nM; level at time molar at 20 min ([2]; beagle, dog, plasma, inhaled or intranasal, 4 ug/kg, PTH 1-34, inhaled dose 4.0 μg/kg, 20 min after start of inhalation): 0.0496 nM; level at time molar at 0.5 h ([2]; beagle, dog, plasma, inhaled or intranasal, 4 ug/kg, PTH 1-34, inhaled dose 4.0 μg/kg, 30 min after start of inhalation): 0.0446 nM; level at time molar at 40 min ([2]; beagle, dog, plasma, inhaled or intranasal, 4 ug/kg, PTH 1-34, inhaled dose 4.0 μg/kg, 40 min after start of inhalation): 0.0362 nM; level at time molar at 1 h ([2]; beagle, dog, plasma, inhaled or intranasal, 4 ug/kg, PTH 1-34, inhaled dose 4.0 μg/kg, 60 min after start of inhalation): 0.026 nM; level at time molar at 1.5 h ([2]; beagle, dog, plasma, inhaled or intranasal, 4 ug/kg, PTH 1-34, inhaled dose 4.0 μg/kg, 90 min after start of inhalation): 0.017 nM; level at time molar at 2 h ([2]; beagle, dog, plasma, inhaled or intranasal, 4 ug/kg, PTH 1-34, inhaled dose 4.0 μg/kg, 120 min after start of inhalation): 0.0126 nM; level at time molar at 4 h ([2]; beagle, dog, plasma, inhaled or intranasal, 4 ug/kg, PTH 1-34, inhaled dose 4.0 μg/kg, 240 min after start of inhalation): 0.006 nM; level at time molar at 6 h ([2]; beagle, dog, plasma, inhaled or intranasal, 4 ug/kg, PTH 1-34, inhaled dose 4.0 μg/kg, 360 min after start of inhalation): 0.0076 nM; level at time molar at 0 h ([2]; beagle, dog, plasma, inhaled or intranasal, 4 ug/kg, PTH 1-34, inhaled dose 4.0 μg/kg, time 0 min (before dosing)): 0.008 nM; Shape of serum/plasma profile after inhalation [2]: pulsatile serum profile

What does the source list for “PTH 1-84: Human parathyroid hormone, 84 amino acid protein (SEQ ID NO: 1); given as micronised dry powder with lactose and citrate”?
Shape of serum profile [1]: plateau which did not diminish significantly during the 90 minutes; Effect on femur bone formation (mineral density of the distal femur) [3]: significant effect on femur bone formation; Plasma concentration of PTH ([2]; 10 min after start of inhalation): 0.0083 nM; Plasma concentration of PTH ([2]; 15 min after start of inhalation): 0.0114 nM; Plasma concentration of PTH ([2]; 20 min after start of inhalation): 0.0116 nM; Plasma concentration of PTH ([2]; 30 min after start of inhalation): 0.0096 nM; Plasma concentration of PTH ([2]; 40 min after start of inhalation): 0.0079 nM; Plasma concentration of PTH ([2]; 60 min after start of inhalation): 0.0058 nM; Plasma concentration of PTH ([2]; 90 min after start of inhalation): 0.0041 nM; Plasma concentration of PTH ([2]; 120 min after start of inhalation): 0.003 nM; Plasma concentration of PTH ([2]; 360 min after start of inhalation): 0.0026 nM; Plasma concentration of PTH ([2]; time 0 min (before dosing)): 0.0034 nM; Shape of serum/plasma profile after inhalation [2]: pulsatile serum profile; Shape of serum/plasma profile after inhalation ([2]; listed as full-length PTH): pulsative plasma profile
